Measured values: patent US20220340597A1, “HEXAHYDRO-1H-PYRAZINO[1,2-A]PYRAZINE COMPOUNDS FOR THE TREATMENT OF AUTOIMMUNE DISEASE” (Hoffmann-La Roche Inc., priority 2019, published 2022)

Legend:
human TLR9 = target: T1, human TLR9 (Homo sapiens, UniProt Q9NR96); test: HEK293-Blue-hTLR-9 cells assay; type: cell-based; conditions: HEK293-Blue-hTLR9 cells, ODN2006 stimulation, 20 hrs, SEAP reporter; read-out: HEK/hTLR9 IC50
T1 construct: host or cells: HEK293 (HEK-Blue hTLR9)
T1 sequence (Q9NR96 26-1032): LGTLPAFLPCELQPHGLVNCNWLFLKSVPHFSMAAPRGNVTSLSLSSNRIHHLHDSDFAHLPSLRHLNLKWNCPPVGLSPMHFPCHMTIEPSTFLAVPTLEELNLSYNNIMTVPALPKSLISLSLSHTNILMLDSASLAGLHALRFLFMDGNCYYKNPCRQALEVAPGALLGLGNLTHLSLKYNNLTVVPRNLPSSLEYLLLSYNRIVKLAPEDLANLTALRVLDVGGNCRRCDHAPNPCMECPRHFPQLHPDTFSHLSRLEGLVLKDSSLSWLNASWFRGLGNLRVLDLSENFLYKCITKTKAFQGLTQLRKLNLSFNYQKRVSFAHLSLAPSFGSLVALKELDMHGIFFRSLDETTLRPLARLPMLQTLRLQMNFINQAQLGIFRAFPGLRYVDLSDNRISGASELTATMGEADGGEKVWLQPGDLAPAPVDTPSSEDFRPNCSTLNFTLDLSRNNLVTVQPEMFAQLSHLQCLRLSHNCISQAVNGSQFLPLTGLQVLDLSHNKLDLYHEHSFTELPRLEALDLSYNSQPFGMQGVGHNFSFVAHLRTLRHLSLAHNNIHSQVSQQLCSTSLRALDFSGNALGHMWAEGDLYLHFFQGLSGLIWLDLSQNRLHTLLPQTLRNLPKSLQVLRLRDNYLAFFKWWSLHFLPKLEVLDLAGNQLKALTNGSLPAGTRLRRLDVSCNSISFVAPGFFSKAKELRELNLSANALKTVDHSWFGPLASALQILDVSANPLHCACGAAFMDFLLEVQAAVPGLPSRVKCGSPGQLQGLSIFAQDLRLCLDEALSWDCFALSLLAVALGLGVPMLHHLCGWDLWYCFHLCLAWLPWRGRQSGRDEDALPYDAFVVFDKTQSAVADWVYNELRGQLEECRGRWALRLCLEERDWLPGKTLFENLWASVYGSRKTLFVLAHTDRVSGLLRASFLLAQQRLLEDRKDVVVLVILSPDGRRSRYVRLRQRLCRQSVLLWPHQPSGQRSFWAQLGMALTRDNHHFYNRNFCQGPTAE
Protocol: The following tests were carried out in order to determine the activity of the compounds of formula (I) and (Ia) in HEK293-Blue-hTLR-7/8/9 cells assay.
HEK293-Blue-hTLR-9 Cells Assay:
A stable HEK293-Blue-hTLR-9 cell line was purchased from InvivoGen (Cat. #: hkb-htlr9, San Diego, Calif., USA). These cells were originally designed for studying the stimulation of human TLR9 by monitoring the activation of NF-κB. A SEAP (secreted embryonic alkaline phosphatase) reporter gene was placed under the control of the […] minimal promoter fused to five NF-κB and AP-1-binding sites. The SEAP was induced by activating NF-κB and AP-1 via stimulating HEK-Blue hTLR9 cells with TLR9 ligands. Therefore, the reporter expression was declined by TLR9 antagonist under the stimulation of a ligand, such as ODN2006 (Cat. #: tlr1-2006-1, Invivogen, San Diego, Calif., USA), for incubation of 20 hrs. The cell culture supernatant SEAP reporter activity was determined using QUANTI-Blue™ kit (Cat. #: rep-qb1, Invivogen, San Diego, Calif., USA) at a wavelength of 640 nm, a detection medium that turns purple or blue in the presence of alkaline phosphatase.
Then 20 μL of the supernatant from each well was incubated with 180 μL Quanti-blue substrate solution at 37° C. for 2 h and the absorbance was read at 620-655 nm using a spectrophotometer. The signaling pathway that TLR9 activation leads to downstream NF-κB activation has been widely accepted, and therefore similar reporter assay was modified for evaluating TLR9 antagonist.

hERG channel = target: T2, hERG channel (Homo sapiens, UniProt Q12809); test: hERG channel inhibition assay (patch-clamp, CHOhERG cells); type: cell-based; conditions: CHOhERG cells, whole-cell patch-clamp; for IC20: human, CHO cells stably expressing hERG (CHOhERG)
T2 construct: expressed in transfected cells; host or cells: CHO (Chinese hamster ovary), CHOhERG
T2 sequence (Q12809 whole entry): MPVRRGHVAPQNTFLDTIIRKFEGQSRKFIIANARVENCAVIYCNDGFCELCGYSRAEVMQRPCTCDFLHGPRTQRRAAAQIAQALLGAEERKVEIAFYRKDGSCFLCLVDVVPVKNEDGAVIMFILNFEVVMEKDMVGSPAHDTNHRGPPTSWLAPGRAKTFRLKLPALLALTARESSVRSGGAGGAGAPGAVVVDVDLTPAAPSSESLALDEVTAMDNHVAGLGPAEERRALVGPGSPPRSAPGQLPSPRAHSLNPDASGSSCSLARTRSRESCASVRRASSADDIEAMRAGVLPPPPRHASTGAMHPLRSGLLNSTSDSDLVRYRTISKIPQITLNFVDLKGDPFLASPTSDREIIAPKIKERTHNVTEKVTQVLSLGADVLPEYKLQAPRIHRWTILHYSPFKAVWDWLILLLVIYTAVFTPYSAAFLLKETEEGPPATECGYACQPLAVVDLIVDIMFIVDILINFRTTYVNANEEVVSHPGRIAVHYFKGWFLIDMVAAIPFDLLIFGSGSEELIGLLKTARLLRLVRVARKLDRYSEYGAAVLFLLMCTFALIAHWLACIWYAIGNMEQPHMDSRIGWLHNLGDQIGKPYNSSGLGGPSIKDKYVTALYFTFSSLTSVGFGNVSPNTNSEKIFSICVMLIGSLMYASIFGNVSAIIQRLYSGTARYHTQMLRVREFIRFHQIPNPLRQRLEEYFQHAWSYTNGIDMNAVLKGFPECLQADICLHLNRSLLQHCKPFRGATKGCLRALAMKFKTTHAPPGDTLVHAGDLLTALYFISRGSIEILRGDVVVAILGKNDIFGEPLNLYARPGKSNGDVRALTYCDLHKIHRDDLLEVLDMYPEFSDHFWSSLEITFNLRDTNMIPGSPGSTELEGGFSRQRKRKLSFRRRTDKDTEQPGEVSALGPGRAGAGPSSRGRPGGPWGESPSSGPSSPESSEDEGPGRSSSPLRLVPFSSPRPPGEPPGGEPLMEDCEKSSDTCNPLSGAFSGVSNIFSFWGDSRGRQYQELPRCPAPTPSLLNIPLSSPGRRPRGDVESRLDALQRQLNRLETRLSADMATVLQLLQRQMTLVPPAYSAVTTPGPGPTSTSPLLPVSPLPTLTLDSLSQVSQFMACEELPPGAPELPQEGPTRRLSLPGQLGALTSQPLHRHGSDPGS
Protocol: hERG Channel Inhibition Assay:
The hERG K^+ channels were cloned in humans and stably expressed in a CHO (Chinese hamster ovary) cell line. CHOhERG cells were used for patch-clamp (voltage-clamp, whole-cell) experiments. Cells were stimulated by a voltage pattern to activate hERG channels and conduct IKhERG currents (rapid delayed outward rectifier potassium current of the hERG channel). After the cells were stabilized for a few minutes, the amplitude and kinetics of IKhERG were recorded at a stimulation frequency of 0.1 Hz (6 bpm). Thereafter, the test compound was added to the preparation at increasing concentrations. For each concentration, an attempt was made to reach a steady-state effect, usually, this was achieved within 3-10 min at which time the next highest concentration was applied. The amplitude and kinetics of IKhERG are recorded in each concentration of the drug which were compared to the control values (taken as 100%). (references: Redfern W S, Carlsson L, Davis A S, Lynch W G, MacKenzie I, Palethorpe S, Siegl P K, Strang I, Sullivan A T, Wallis R, Camm A J, Hammond T G. 2003; Relationships between preclinical cardiac electrophysiology, clinical QT interval prolongation and torsade de pointes for a broad range of drugs: evidence for a provisional safety margin in drug development. Cardiovasc. Res. 58:32-45, Sanguinetti M C, Tristani-Firouzi M. 2006; hERG potassium channels and cardiac arrhythmia. Nature 440:463-469, Webster R, Leishman D, Walker D. 2002; Towards a drug concentration effect relationship for QT prolongation and torsades de pointes. Curr. Opin. Drug Discov. Devel. 5:116-26).
The calculation of hERG IC20/TLR7/8/9 IC50 below serves as early selectivity index to assess hERG liability.

Structure (SMILES) | IC50 (human TLR9) | IC50 (hERG channel) | IC20 (hERG channel)
C[C@@H]1CN(c2ccc(C#N)c3ncccc23)C[C@@H]2CN(CCc3ccc(N4C[C@@H](N)[C@H](F)C4)nc3)CCN21 [Example 18, 5-[(4R,9aS)-8-[2-[6-[(3R,4R)-3-amino-4-fluoro-pyrrolidin-1-yl]-3-pyridyl]ethyl]-4-methyl-3,4,6,7,9,9a-hexahydro-1H-pyrazino[1,2-a]pyrazin-2-yl]quinoline-8-carbonitrile] | 65 nM | – | –
C[C@@H]1CN(c2ccc(C#N)c3ncccc23)C[C@H]2CN(c3cccc4c3CCNC4)CCN21 (relative stereo) [Example 47] | 117 nM | – | –
[2H]c1ccc2c(N3C[C@@H]4CN(c5ncc(N6CC7(CC(N)C7)C6)cc5C)CCN4[C@H](C)C3)ccc(C#N)c2n1 [Example 101, 5-[(4R,9aR)-8-[5-(6-amino-2-azaspiro[3.3]heptan-2-yl)-3-methyl-2-pyridyl]-4-methyl-3,4,6,7,9,9a-hexahydro-1H-pyrazino[1,2-a]pyrazin-2-yl]-2-deuterio-quinoline-8-carbonitrile] | 81 nM | – | –
C[C@@H]1CN(c2ccc(C#N)c3ncccc23)C[C@@H]2CN(CCc3ccc(N4C[C@@H](N)[C@@H](F)C4)nc3)CCN21 [Example 17, 5-[(4R,9aS)-8-[2-[6-[(3R,4S)-3-amino-4-fluoro-pyrrolidin-1-yl]-3-pyridyl]ethyl]-4-methyl-3,4,6,7,9,9a-hexahydro-1H-pyrazino[1,2-a]pyrazin-2-yl]quinoline-8-carbonitrile] | 47 nM | > 20000 nM | > 10000 nM
[2H]c1ccc2c(N3C[C@@H]4CN(CCc5ccc(N6C[C@@H](N)[C@@H](F)C6)nc5)CCN4[C@H](C)C3)ccc(C#N)c2n1 [Example 63, 5-[(4R,9aS)-8-[2-[6-[(3R,4S)-3-amino-4-fluoro-pyrrolidin-1-yl]-3-pyridyl]ethyl]-4-methyl-3,4,6,7,9,9a-hexahydro-1H-pyrazino[1,2-a]pyrazin-2-yl]-2-deuterio-quinoline-8-carbonitrile] | 78 nM | – | –
[2H]c1ccc2c(N3C[C@@H]4CN(c5ncc(N6CCOC[C@H](N)C6)cc5C)CCN4[C@@H](C)C3)ccc(C#N)c2n1 [Example 110, 5-[(4S,9aR)-8-[5-[(6R)-6-amino-1,4-oxazepan-4-yl]-3-methyl-2-pyridyl]-4-methyl-3,4,6,7,9,9a-hexahydro-1H-pyrazino[1,2-a]pyrazin-2-yl]-2-deuterio-quinoline-8-carbonitrile] | 70 nM | – | –
C[C@@H]1CN(c2ccc(C#N)c3ncccc23)C[C@@H]2CN(c3cncc4c3CCNC4)CCN21 [Example 44, 5-[(4R,9aR)-4-methyl-8-(5,6,7,8-tetrahydro-2,7-naphthyridin-4-yl)-3,4,6,7,9,9a-hexahydro-1H-pyrazino[1,2-a]pyrazin-2-yl]quinoline-8-carbonitrile] | 50 nM | – | –
C[C@@H]1CN(c2ccc(C#N)c3ncccc23)C[C@H]2CN(c3cncc4c3CCNC4)CCN21 [Example 42, 5-[(4R,9aS)-4-methyl-8-(5,6,7,8-tetrahydro-2,7-naphthyridin-4-yl)-3,4,6,7,9,9a-hexahydro-1H-pyrazino[1,2-a]pyrazin-2-yl]quinoline-8-carbonitrile] | 50 nM | > 10000 nM | 4350 nM
